The target of assay [1] is FGFR3 (SEQ ID NO: 5, amino acids 449-759) (Homo sapiens (Human), UniProt P22607). Put plainly: LC/MS FGFR3 kobs assay (covalent protein modification). Format: binding. As to conditions: 500 nM FGFR3, 3 μM compound. The procedure, abridged:
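The observed rate constant kobs comes from an exponential decay fit of percent unmodified kinase over time. Covalent modification was quantified by Q-TOF LC/MS of formic acid-quenched samples, normalized against DMSO controls.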

Assay [2] concerns the target FGFR1 (SEQ ID NO: 1, amino acids 458-765) (Homo sapiens (Human), UniProt P11362). Put plainly: LC/MS FGFR1 kobs assay (covalent protein modification). It counts as binding. As to conditions: 500 nM FGFR1, 3 μM compound. The procedure, abridged:
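Covalent labeling of FGFR1 kinase domain (aa 458-765) tracked over time by intact-protein LC/MS after formic acid quench. kobs derived by fitting DMSO-normalized percent unmodified FGFR1 to an exponential decay model.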

The target in assay [3] is recombinant human FGFR3 (amino acids R397-T806) (Homo sapiens (Human), UniProt P22607). The assay is described as follows: FGFR3 enzyme activity assay (LanthaScreen TR-FRET). Format: biochemical. As to conditions: 25 μM ATP, 10 min incubation at 22° C., average of multiple determinations if made, read-out: FGFR3 Enz FRET IC50. In short, it runs like this:
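GST-HIS6-tagged human FGFR3 (R397-T806) was reacted with 100 nM Alexa Fluor 647-Poly-GT substrate and 25 μM ATP plus compound in HEPES/MgCl2/Triton buffer, pH 7.5, 2% DMSO, for 10 min at 22 °C.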
For orientation: TR-FRET usually uses a lanthanide donor and a delayed reading to cut background.

Assay [4] concerns the target recombinant human FGFR2 cytoplasmic domain (amino acids 403-822) (Homo sapiens (Human), UniProt P21802). The assay is described as follows: FGFR2 enzyme activity assay (LanthaScreen TR-FRET). As to conditions: 15 μM ATP, 20 min incubation at 22° C., average of multiple determinations if made, read-out: FGFR2 Enz FRET IC50. It counts as biochemical. In short, it runs like this: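 His-tagged FGFR2 cytoplasmic domain ([…]) with 100 nM Alexa Fluor 647-poly-GT peptide and 15 μM ATP in HEPES/MgCl2/Triton buffer, pH 7.5, 2% DMSO, 20 min at 22 °C. EDTA-quenched, Eu-PY20 antibody added, TR-FRET read after 60 min.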

For assay [5], the target named is HEK-293 cells transfected with dox-inducible human wild type FGFR1 (Homo sapiens (Human), UniProt P11362). Put plainly: FGFR1 pERK cell assay. Format: cell-based. As to conditions: HEK-293 dox-inducible FGFR1, 1 hour compound, 100 ng/ml FGF-acidic; maximum concentration 5 μM. In short, it runs like this: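 In HEK-293 cells with dox-induced human wild-type FGFR1, compounds (1:3 dilutions, top 5 μM final) were applied 1 h at 37°C before 5 min stimulation with 100 ng/ml FGF-acidic. Phospho-ERK1/2 measured by MSD sandwich immunoassay; IC50 from 4-parameter fit of POC versus vehicle and control compound.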
Sequence of HEK-293 cells transfected with dox-inducible human wild type FGFR1 (P11362 22-822): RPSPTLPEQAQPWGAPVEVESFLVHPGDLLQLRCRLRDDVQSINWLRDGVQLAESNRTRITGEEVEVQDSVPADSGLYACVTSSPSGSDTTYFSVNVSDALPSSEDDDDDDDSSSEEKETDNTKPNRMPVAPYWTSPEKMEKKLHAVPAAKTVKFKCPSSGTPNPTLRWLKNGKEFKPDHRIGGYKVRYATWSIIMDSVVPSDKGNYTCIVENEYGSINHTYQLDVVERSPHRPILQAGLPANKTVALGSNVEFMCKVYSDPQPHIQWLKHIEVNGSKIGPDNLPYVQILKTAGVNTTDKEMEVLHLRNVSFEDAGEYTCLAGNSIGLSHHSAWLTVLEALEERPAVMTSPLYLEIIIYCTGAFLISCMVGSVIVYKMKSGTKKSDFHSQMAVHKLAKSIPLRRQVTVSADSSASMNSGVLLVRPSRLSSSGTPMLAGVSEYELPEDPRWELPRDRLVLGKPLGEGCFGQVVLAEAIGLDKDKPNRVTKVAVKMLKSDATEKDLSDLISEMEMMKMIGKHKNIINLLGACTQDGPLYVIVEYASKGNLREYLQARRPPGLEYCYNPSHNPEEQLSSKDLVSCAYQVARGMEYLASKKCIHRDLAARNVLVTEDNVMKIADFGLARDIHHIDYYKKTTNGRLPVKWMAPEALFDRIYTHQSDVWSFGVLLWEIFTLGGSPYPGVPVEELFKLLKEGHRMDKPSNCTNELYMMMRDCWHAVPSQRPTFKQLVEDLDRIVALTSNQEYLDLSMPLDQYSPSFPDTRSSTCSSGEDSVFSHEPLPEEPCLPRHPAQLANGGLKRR

Sequence of recombinant human FGFR2 cytoplasmic domain (amino acids 403-822) (P21802 402-821): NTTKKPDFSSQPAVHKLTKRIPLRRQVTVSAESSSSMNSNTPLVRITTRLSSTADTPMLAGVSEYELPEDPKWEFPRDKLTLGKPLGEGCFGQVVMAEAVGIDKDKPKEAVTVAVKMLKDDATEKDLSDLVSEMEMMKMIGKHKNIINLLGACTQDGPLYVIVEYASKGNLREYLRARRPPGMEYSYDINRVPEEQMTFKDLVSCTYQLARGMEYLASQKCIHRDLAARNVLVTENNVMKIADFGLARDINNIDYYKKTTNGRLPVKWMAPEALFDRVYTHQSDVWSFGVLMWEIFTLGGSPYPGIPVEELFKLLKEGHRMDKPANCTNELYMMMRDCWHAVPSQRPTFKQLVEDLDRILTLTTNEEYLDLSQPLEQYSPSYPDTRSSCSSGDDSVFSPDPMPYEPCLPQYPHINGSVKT
Sequence of FGFR3 (SEQ ID NO: 5, amino acids 449-759) (P22607 449-759): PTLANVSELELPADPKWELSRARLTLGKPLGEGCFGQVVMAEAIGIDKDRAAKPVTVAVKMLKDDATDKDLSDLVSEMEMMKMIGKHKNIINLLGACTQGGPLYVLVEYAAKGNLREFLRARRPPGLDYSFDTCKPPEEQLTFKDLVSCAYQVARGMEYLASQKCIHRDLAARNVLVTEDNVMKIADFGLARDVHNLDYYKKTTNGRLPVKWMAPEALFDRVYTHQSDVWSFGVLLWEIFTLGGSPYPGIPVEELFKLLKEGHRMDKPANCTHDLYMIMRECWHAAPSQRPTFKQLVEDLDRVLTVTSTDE
Sequence of FGFR1 (SEQ ID NO: 1, amino acids 458-765) (P11362 458-765): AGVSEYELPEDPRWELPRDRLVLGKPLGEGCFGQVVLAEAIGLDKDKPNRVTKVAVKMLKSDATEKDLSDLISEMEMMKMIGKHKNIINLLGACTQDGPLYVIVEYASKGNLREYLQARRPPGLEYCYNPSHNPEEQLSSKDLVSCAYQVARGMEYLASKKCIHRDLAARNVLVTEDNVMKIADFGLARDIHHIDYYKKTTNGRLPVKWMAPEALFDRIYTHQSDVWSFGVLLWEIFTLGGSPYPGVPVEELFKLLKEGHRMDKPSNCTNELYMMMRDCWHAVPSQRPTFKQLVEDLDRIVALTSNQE
Sequence of recombinant human FGFR3 (amino acids R397-T806) (P22607 397-806): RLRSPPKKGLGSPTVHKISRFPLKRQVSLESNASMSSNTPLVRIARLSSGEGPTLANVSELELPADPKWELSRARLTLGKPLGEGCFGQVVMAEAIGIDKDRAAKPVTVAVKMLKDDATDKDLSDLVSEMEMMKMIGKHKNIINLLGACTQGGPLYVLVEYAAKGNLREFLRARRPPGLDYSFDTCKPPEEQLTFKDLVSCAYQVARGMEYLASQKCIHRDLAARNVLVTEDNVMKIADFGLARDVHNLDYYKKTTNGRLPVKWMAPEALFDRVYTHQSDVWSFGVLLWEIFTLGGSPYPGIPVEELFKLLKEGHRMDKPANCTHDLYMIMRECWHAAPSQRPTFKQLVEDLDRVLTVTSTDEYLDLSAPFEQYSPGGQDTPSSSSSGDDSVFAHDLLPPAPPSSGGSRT

As to `COc1cc(-c2nn(C3CCN(C(=O)C4(F)CN(C(=O)/C=C/CN(C)C)C4)CC3)nc2C)cn2ncc(C#N)c12` [Example 163, (E)-6-(2-(1-(1-(4-(dimethylamino)but-2-enoyl)-3-fluoroazetidine-3-carbonyl)piperidin-4-yl)-5-methyl-2H-1,2,3-triazol-4-yl)-4-methoxypyrazolo [1,5-a]pyridine-3-carbonitrile], the “FGFR3 Enz kobs” value in assay [1] was determined as 0.03573 min⁻¹. Besides, the “FGFR1 Enz kobs” value in assay [2] amounted to 0.00486 min⁻¹. Also, the IC50 in assay [3] is 229 nM; in assay [4], 1170 nM; in assay [5] it was 1650 nM.

As to `COc1cc(-c2nnn(C3CCN(C(=O)C4(F)CN(C(=O)/C=C/CN(C)C)C4)CC3)c2C)cn2ncc(C#N)c12` [Example 164, (E)-6-(1-(1-(1-(4-(dimethylamino)but-2-enoyl)-3-fluoroazetidine-3-carbonyl)piperidin-4-yl)-5-methyl-1H-1,2,3-triazol-4-yl)-4-methoxypyrazolo [1,5-a]pyridine-3-carbonitrile], the “FGFR3 Enz kobs” value in assay [1] came to 0.1705 min⁻¹. In addition, the “FGFR1 Enz kobs” value in assay [2] came to 0.00713 min⁻¹. The IC50 was 8 nM in assay [3], 15 nM in assay [4] and not below 5000 nM in assay [5].

For `COc1cc(-c2ccc(N3CCN(C(=O)C4(F)CN(C(=O)/C=C/CN(C)C)C4)CC3)nc2C)cn2ncc(C#N)c12` [Example 168, (E)-6-(6-(4-(1-(4-(dimethylamino)but-2-enoyl)-3-fluoroazetidine-3-carbonyl)piperazin-1-yl)-2-methylpyridin-3-yl)-4-methoxypyrazolo [1,5-a]pyridine-3-carbonitrile], the “FGFR3 Enz kobs” value in assay [1] is 0.06456 min⁻¹. The “FGFR1 Enz kobs” value in assay [2] was found to be 0.00847 min⁻¹. The IC50 in assay [3] amounted to 72 nM; in assay [4] it was 50 nM; in assay [5] it was 502 nM.

Turning to `COc1cc(-c2cnc(N3CCN(C(=O)C4(F)CN(C(=O)/C=C/CN(C)C)C4)CC3)cc2C)cn2ncc(C#N)c12` [Example 169, (E)-6-(6-(4-(1-(4-(dimethylamino)but-2-enoyl)-3-fluoroazetidine-3-carbonyl)piperazin-1-yl) -4-methylpyridin-3-yl)-4-methoxypyrazolo [1,5-a]pyridine-3-carbonitrile], the “FGFR3 Enz kobs” value in assay [1] was determined as 0.08 min⁻¹. Also, in assay [2], the “FGFR1 Enz kobs” value is 0.00576 min⁻¹. The IC50 in assay [3] was 83 nM; in assay [4], 80 nM; in assay [5], 751 nM.

As for `COc1cc(-c2cnn(C3CCN(C(=O)C4(F)CN(C(=O)/C=C/CN(C)C)C4)CC3)c2C)cn2ncc(Cl)c12` [Example 170, (E)-1-(3-(4-(4-(3-chloro-4-methoxypyrazolo [1,5-a]pyridin-6-yl)-5-methyl-1H-pyrazol-1-yl)piperidine-1-carbonyl)-3-fluoroazetidin-1-yl)-4-(dimethylamino)but-2-en-1-one], the “FGFR3 Enz kobs” value in assay [1] was determined as 0.1388 min⁻¹. For the same compound, the “FGFR1 Enz kobs” value in assay [2] is 0.00774 min⁻¹. For the same compound, the IC50 was 17 nM in assay [3], 239 nM in assay [4] and 915 nM in assay [5].

For `COc1cc(-c2cnn(C3CCN(C(=O)C4(OC)CN(C(=O)/C=C/CN(C)C)C4)CC3)c2C)cn2ncc(Cl)c12` [Example 171, (E)-1-(3-(4-(4-(3-chloro-4-methoxypyrazolo [1,5-a]pyridin-6-yl)-5-methyl-1H-pyrazol-1-yl)piperidine-1-carbonyl)-3-methoxyazetidin-1-yl)-4-(dimethylamino)but-2-en-1-one], in assay [1], the “FGFR3 Enz kobs” value came out at 0.0804 min⁻¹. Further, in assay [2], the “FGFR1 Enz kobs” value was determined as 0.00471 min⁻¹. In addition, the IC50 came to 24 nM in assay [3], 19 nM in assay [4] and 888 nM in assay [5].

For the compound `C=CC(=O)N1CC(O)(C(=O)N2CCC(n3ncc(-c4cc(OC)c5c(Cl)cnn5c4)c3C)CC2)C1` [Example 172, 1-(3-(4-(4-(3-chloro-4-methoxypyrazolo [1,5-a]pyridin-6-yl)-5-methyl-1H-pyrazol-1-yl)piperidine-1-carbonyl)-3-hydroxyazetidin-1-yl)prop-2-en-1-one], in assay [1], the “FGFR3 Enz kobs” value came out at 0.02599 min⁻¹. Moreover, the “FGFR1 Enz kobs” value in assay [2] came to 0.00191 min⁻¹. For the same compound, the values for the IC50 in assay [3], in assay [4] and in assay [5] were 101 nM, 454 nM and 3290 nM, respectively.

Regarding `COc1cc(-c2cnn(C3CCN(CC4(OC)CN(C(=O)/C=C/CN(C)C)C4)CC3)c2C)cn2ncc(Cl)c12` [Example 173, (E)-1-(3-((4-(4-(3-chloro-4-methoxypyrazolo [1,5-a]pyridin-6-yl)-5-methyl-1H-pyrazol-1-yl)piperidin-1-yl)methyl)-3-methoxyazetidin-1-yl)-4-(dimethylamino)but-2-en-1-one], the “FGFR3 Enz kobs” value in assay [1] came to 0.06559 min⁻¹. Moreover, the “FGFR1 Enz kobs” value in assay [2] is 0.00434 min⁻¹. For the same compound, the IC50 in assay [3] was 41 nM; in assay [4] it was 28 nM; in assay [5], 1280 nM.

As to `COc1cc(-c2cnn(C3CCN(C(=O)C4CN(C(=O)C#CCO)C4)CC3)c2)cn2ncc(C#N)c12` [Example 179, 6-(1-(1-(1-(4-hydroxybut-2-ynoyl)azetidine-3-carbonyl)piperidin-4-yl)-1H-pyrazol-4-yl)-4-methoxypyrazolo[1,5-a]pyridine-3-carbonitrile], the “FGFR3 Enz kobs” value in assay [1] was found to be 0.189 min⁻¹. For the same compound, in assay [2], the “FGFR1 Enz kobs” value was 0.01248 min⁻¹. Further, the IC50 came out at 3 nM in assay [3], 3 nM in assay [4] and 1600 nM in assay [5].

Regarding `COc1cc(-c2cnn(C3CCN(C(=O)C4CN(C(=O)/C=C/CCl)C4)CC3)c2)cn2ncc(C#N)c12` [Example 181, (E)-6-(1-(1-(1-(4-chlorobut-2-enoyl)azetidine-3-carbonyl)piperidin-4-yl)-1H-pyrazol-4-yl)-4-methoxypyrazolo[1,5-a]pyridine-3-carbonitrile], in assay [1], the “FGFR3 Enz kobs” value was determined as 0.02709 min⁻¹. Also, the “FGFR1 Enz kobs” value in assay [2] turned out to be 0.00249 min⁻¹. Further, the results for the IC50 in assay [3], in assay [4] and in assay [5] were 2 nM, 2 nM and 196 nM, respectively.

With `COc1cc(-c2cnn(C3CCN(C(=O)C4CN(C(=O)/C=C/CN5CC[C@H](F)C5)C4)CC3)c2)cn2ncc(C#N)c12` [Example 182, (S,E)-6-(1-(1-(1-(4-(3-fluoropyrrolidin-1-yl)but-2-enoyl)azetidine-3-carbonyl)piperidin-4-yl)-1H-pyrazol-4-yl)-4-methoxypyrazolo[1,5-a]pyridine-3-carbonitrile], the “FGFR3 Enz kobs” value in assay [1] came out at 0.01781 min⁻¹. In assay [2], the “FGFR1 Enz kobs” value is 0.00202 min⁻¹. Besides, the IC50 in assay [3] came out at 3 nM; in assay [4], 3 nM; in assay [5] it was 3630 nM.

In the case of `COc1cc(-c2cnn(C3CCN(C(=O)C4CN(C(=O)/C=C/CN5CC[C@@H](F)C5)C4)CC3)c2)cn2ncc(C#N)c12` [Example 183, (R,E)-6-(1-(1-(1-(4-(3-fluoropyrrolidin-1-yl)but-2-enoyl)azetidine-3-carbonyl)piperidin-4-yl)-1H-pyrazol-4-yl)-4-methoxypyrazolo[1,5-a]pyridine-3-carbonitrile], in assay [1], the “FGFR3 Enz kobs” value was 0.02414 min⁻¹. For the same compound, the “FGFR1 Enz kobs” value in assay [2] was found to be 0.00259 min⁻¹. Moreover, the results for the IC50 in assay [3], in assay [4] and in assay [5] were 5 nM, 4 nM and 4570 nM, respectively.

The term IC50 denotes the point on the concentration scale where inhibition reaches its midpoint.

For the origin of these results see patent US12180207B2 (ARRAY BIOPHARMA INC., priority 2018, dated 2024).
